The target of data set [1] is human inducible NO-synthase (Homo sapiens, UniProt P35228). The experiment in a line: Measurement of inducible NO-synthase activity ([3H]arginine conversion, crude cytosolic fraction). It is filed as biochemical. Particulars: 0.1 μM arginine, 45 to 60 min at 37° C., pH 7.2; for IC50: read-out: Inhibition of iNOS activity [measured as −logIC50 (mol/l)] (converted). The procedure:
Measurement of Inducible NO-Synthase Activity
The assay is performed in 96-well microtiter F-plates (Greiner, Frickenhausen, FRG) in a total volume of 100 μl in the presence of 100 nM calmodulin, 226 μM CaCl2, 477 μM MgCl2, 5 μM flavin-adenine-dinucleotide (FAD), 5 μM flavin mononucleotide (FMN), 0.1 mM NADPH, 7 mM glutathione, 10 μM BH4 and 100 mM HEPES pH 7.2. Arginine concentrations are 0.1 μM for enzyme inhibition experiments. 150000 dpm of [^3H]arginine are added to the assay mixture. Enzyme reaction is started by the addition of 4 μg of a crude cytosolic fraction containing human inducible NO-synthase and the reaction mixture is incubated for 45 to 60 min at 37° C. Enzyme reaction is stopped by adding 10 μl of 2M MES-buffer pH 5.0. 50 μl of the incubation mixture are transferred into a MADP N65 filtration microtiter plate (Millipore, Eschbom, FRG) containing already 50 μl of AG-50W-X8 cation exchange resin (Biorad, München, FRG). The resin in the Na loaded form is pre-equilibrated in water and 70 μl (corresponding to 50 μl dry beads) are pipetted under heavy stirring with a 8 channel pipette into the filtration plate. After pipetting 50 μl of the enzyme reaction mixture onto the filtration plates, the plates are placed on a filtration manifold (Porvair, Shepperton, UK) and the flow through is collected in Pico scintillation plates (Packard, Meriden, Conn.). The resin in the filtration plates is washed with 75 μl of water (1×50 μl and 1×25 μl) which is also collected in the same plate as the sample. The total flow through of 125 μl is mixed with 175 μl of Microscint-40 scintillation cocktail (Packard) and the scintillation plate is sealed with TopSeal P-foil (Packard). Scintillation plates are counted in a scintillation counter.
For the measurement of inducible NO-synthase-inhibiting potencies of compounds increasing concentrations of inhibitors were included into the incubation mixture. IC50-values were calculated from the percent inhibition at given concentrations by nonlinear least square fitting.
The inhibitory values determined for the compounds according to the invention follow from the following table A, in which the compound numbers correspond to the example numbers.

With `COc1ccnc(CCc2nc3cc(-c4ccc(S(=O)(=O)N5CCN(C)CC5)cc4)cnc3[nH]2)c1` [Compound 1], the melting point fell in the range of 193 to 195 °C. For the same molecule, the IC50 in data set [1] is 19.5 nM. Taken in the same sequence, the figures for `COc1ccnc(CCc2nc3cc(-c4ccc(S(=O)(=O)N5CCN(Cc6ccccc6)CC5)cc4)cnc3[nH]2)c1` [Compound 2, 2-[2-(4-Methoxypyridin-2-yl)-ethyl]-6-[4-(4-benzylpiperazin-1-yl-sulfonyl)-phenyl]-3H-imidazo-[4,5-b]pyridine] were 160 to 162 °C and 35.5 nM. Taken in the same sequence, the figures for `COc1ccnc(CCc2nc3cc(-c4ccc(S(=O)(=O)N5CCN(c6ccccc6)CC5)cc4)cnc3[nH]2)c1` [Compound 3, 2-[2-(4-Methoxypyridin-2-yl)ethyl]-6-[4-(4-phenylpiperazin-1-yl-sulfonyl)-phenyl]-3H-imidazo-[4,5-b]pyridine] were 218 to 220 °C and 14.5 nM.

Consider `COc1ccnc(CCc2nc3cc(-c4ccc(S(=O)(=O)N5CCN(c6ccc(C#N)cc6)CC5)cc4)cnc3[nH]2)c1` [Compound 4, 2-[2-(4-Methoxypyridin-2-yl)ethyl]-6-{4-[4-(4-cyanophenyl)-piperazin-1-yl-sulfonyl]-phenyl}-3H-imidazo-[4,5-b]pyridine], for which the melting point fell in the range of 217 to 219 °C. Besides, in data set [1], the IC50 was 30.2 nM. Regarding `COc1ccnc(CCc2nc3cc(-c4ccc(S(=O)(=O)N5CCN(c6ccc(C)cc6)CC5)cc4)cnc3[nH]2)c1` [Compound 5, 2-[2-(4-Methoxypyridin-2-yl)ethyl]-6-[4-(4-p-tolyl-piperazin-1-yl-sulfonyl)-phenyl]-3H-imidazo-[4,5-b]pyridine], the melting point lay within 150 to 154 °C. In data set [1], the IC50 is 26.3 nM.

`COc1ccnc(CCc2nc3cc(-c4ccc(S(=O)(=O)N5CCN(c6ccc(C)cc6C)CC5)cc4)cnc3[nH]2)c1` [Compound 6, 6-{4-[4-(2,4-Dimethylphenyl)-piperazin-1-yl-sulfonyl]-phenyl}-2-[2-(4-methoxy-pyridin-2-yl)ethyl]-3H-imidazo[4,5-b]pyridine] returned a melting point of 208 to 209 °C. The IC50 in data set [1] was 126 nM. `COc1ccnc(CCc2nc3cc(-c4ccc(S(=O)(=O)N5CCN(c6cc(Cl)cc(Cl)c6)CC5)cc4)cnc3[nH]2)c1` [Compound 7, 6-{4-[4-(3,5-Dichlorphenyl)-piperazin-1-yl-sulfonyl]-phenyl}-2-[2-(4-methoxy-pyridin-2-yl)ethyl]-3H-imidazo[4,5-b]pyridine] had an Inhibition of iNOS activity [measured as −logIC50] in data set [1] of 6.51. `COCCN1CCN(S(=O)(=O)c2ccc(-c3cnc4[nH]c(CCc5cc(OC)ccn5)nc4c3)cc2)CC1` [Compound 8, 6-{4-[4-(2-Methoxy-ethyl)-piperazin-1-yl-sulfonyl]-phenyl}-2-[2-(4-methoxy-pyridin-2-yl)ethyl]-3H-imidazo[4,5-b]pyridine]: the melting point lay within 206 to 208 °C. Also, the IC50 in data set [1] is 42.7 nM. `COc1ccnc(CCc2nc3cc(-c4ccc(S(=O)(=O)N5CCN(C(C)=O)CC5)cc4)cnc3[nH]2)c1` [Compound 9, 6-[4-(4-Acetyl-piperazin-1-yl-sulfonyl)-phenyl]-2-[2-(4-methoxy-pyridin-2-yl)ethyl]-3H-imidazo[4,5-b]pyridine] displayed a melting point of 138 to 140 °C. Besides, in data set [1], the IC50 is 29.5 nM.

For `COc1ccnc(CCc2nc3cc(-c4ccc(S(=O)(=O)N5CCOCC5)cc4)cnc3[nH]2)c1` [Compound 10, 2-[2-(4-Methoxypyridin-2-yl)ethyl]-6-[4-(morpholin-4-yl-sulfonyl)-phenyl]-3H-imidazo-[4,5-b]pyridine], the melting point is 210 to 212 °C. In data set [1], the IC50 was 22.9 nM. With `COc1ccnc(CCc2nc3cc(-c4ccc(S(=O)(=O)N5CCCN(C)CC5)cc4)cnc3[nH]2)c1` [Compound 11, 2-[2-(4-Methoxypyridin-2-yl)ethyl]-6-[4-(4-methyl-[1,4]diazepan-1-yl-sulfonyl)-phenyl]-3H-imidazo-[4,5-b]pyridine], the melting point fell in the range of 160 to 162 °C. Also, the IC50 in data set [1] was 12.9 nM. Taken in the same sequence, the figures for `COc1ccnc(CCc2nc3cc(-c4ccc(S(=O)(=O)N5CCC(C)CC5)cc4)cnc3[nH]2)c1` [Compound 12, 2-[2(4-Methoxypyridin-2-yl)ethyl]-6-[4-(4-methyl-piperidin-1-yl-sulfonyl)-phenyl]-3H-imidazo-[4,5-b]pyridine] were 186 to 188 °C and 25.1 nM.

Turning to `COc1ccnc(CCc2nc3cc(-c4ccc(S(=O)(=O)N5CCC(C(=O)c6ccccc6)CC5)cc4)cnc3[nH]2)c1` [Compound 13, 6-[4-(4-Benzoyl-piperidin-1-yl-sulfonyl)-phenyl]-2-[2-(4-methoxy-pyridin-2-yl)ethyl]-3H-imidazo[4,5-b]pyridine], the melting point is 174 to 175 °C. In addition, in data set [1], the IC50 is 33.1 nM.

Regarding `COc1ccnc(CCc2nc3cc(-c4ccc(S(=O)(=O)N5CCC6(CC5)OCCO6)cc4)cnc3[nH]2)c1` [Compound 14, 6-[4-(1,4-dioxa-8-azaspiro[4.5]decan-8-yl-sulfonyl)-phenyl]-2-[2-(4-methoxy-pyridin-2-yl)ethyl]-3H-imidazo[4,5-b]pyridine], the melting point lay in the range of 121 to 122 °C. The IC50 in data set [1] was 26.3 nM. Taken in the same sequence, the figures for `COc1ccnc(CCc2nc3cc(-c4ccc(S(=O)(=O)N5CCc6cc(OC)c(OC)cc6C5)cc4)cnc3[nH]2)c1` [Compound 15, 6-[4-(6,7-Dimethoxy-1,2,3,4-tetrahydroisoquinolin-2-yl-sulfonyl)-phenyl]-2-[2-(4-methoxy-pyridin-2-yl)ethyl]-3H-imidazo[4,5-b]pyridine] were 207 to 208 °C and 34.7 nM. Taken in the same sequence, the figures for `COc1ccnc(CCc2nc3cc(-c4ccc(S(=O)(=O)N5CCNC(=O)CC5)cc4)cnc3[nH]2)c1` [Compound 16, 6-[4-(1,4-Diazepan-5-one-1-yl-sulfonyl)-phenyl]-2-[2-(4-methoxy-pyridin-2-yl)ethyl]-3H-imidazo[4,5-b]pyridine] were 230 to 232 °C and 24 nM.

Regarding `COc1ccnc(CCc2nc3cc(-c4ccc(S(=O)(=O)NCCO)cc4)cnc3[nH]2)c1` [Compound 17, N-(2-Hydroxyethyl)-4-{2-[2-(4-methoxypyridin-2-yl)ethyl]-3H-imidazo[4,5-b]pyridin-6-yl}benzenesulfonamid], the melting point was 218 to 220 °C. Further, in data set [1], the IC50 is 42.7 nM. Taken in the same sequence, the figures for `COc1ccnc(CCc2nc3cc(-c4ccc(S(=O)(=O)N(CCO)CCO)cc4)cnc3[nH]2)c1` [Compound 18, N,N-Bis-(2-hydroxyethyl)-4-{2-[2-(4-methoxypyridin-2-yl)ethyl]-3H-imidazo-[4,5-b]pyridin-6-yl}benzenesulfonamid] were 127 to 128 °C and 91.2 nM. Taken in the same sequence, the figures for `COc1ccnc(CCc2nc3cc(-c4ccc(S(=O)(=O)NCc5ccccc5)cc4)cnc3[nH]2)c1` [Compound 19, N-Benzyl-4-{2-[2-(4-methoxypyridin-2-yl)ethyl]-3H-imidazo-[4,5-b]pyridin-6-yl}benzenesulfonamid] were 211 to 212 °C and 18.6 nM.

With `COc1ccnc(CCc2nc3cc(-c4ccc(S(=O)(=O)NC5CCCCC5)cc4)cnc3[nH]2)c1` [Compound 20, N-Cyclohexyl-4-{2-[2-(4-methoxypyridin-2-yl)ethyl]-3H-imidazo-[4,5-b]pyridin-6-yl}benzenesulfonamid], the melting point fell in the range of 199 to 200 °C. The IC50 in data set [1] was 50.1 nM. Molecule `COc1ccnc(CCc2nc3cc(-c4ccc(S(=O)(=O)N(C)C)c(OC(F)(F)F)c4)cnc3[nH]2)c1` [Compound 21, 4-{2-[2-(4-Methoxypyridin-2-yl)ethyl]-3H-imidazo[4,5-b]pyridin-6-yl}-N,N-dimethyl-2-trifluormethoxy-benzenesulfonamide] showed an Inhibition of iNOS activity [measured as −logIC50] in data set [1] of 6.95. The same measure, in the same setting: the same measure for `COc1ccnc(CCc2nc3cc(-c4ccc(S(=O)(=O)N(C)C)c(C(F)(F)F)c4)cnc3[nH]2)c1` [Compound 22, 4-{2-[2-(4-Methoxypyridin-2-yl)ethyl]-3H-imidazo[4,5-b]pyridin-6-yl}-N,N-dimethyl-2-trifluormethyl-benzenesulfonamide]: 7; for `COc1ccnc(CCc2nc3cc(-c4ccc(S(=O)(=O)N(C)c5ccc(Cl)cc5)cc4)cnc3[nH]2)c1` [Compound 28, N-(4-Chlorphenyl)-N-methyl-4-{2-[2-(4-methoxypyridin-2-yl)ethyl]-3H-imidazo-[4,5-b]pyridin-6-yl}benzenesulfonamid]: 7.41.

Usually melting point stands for the temperature, or range, at which the solid turns liquid.

(Values after US7709488B2, “Imidazopyridine-derivatives as inducible no-synthase inhibitors” (Altana Pharma AG, priority 2003, dated 2010).)
